This is an account of results in patent US10882856B2 (BeiGene, Ltd., priority 2017, dated 2021).

Test [1] concerns the target T1, TDO (Homo sapiens, UniProt P48775).
T1 construct: His tag (C); made in house; host or cells: E. coli
The test can be described thus: TDO enzymatic assay. It counts as biochemical. The conditions noted are these: read-out: Enzyme IC50 TDO. The procedure, abridged:
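Recombinant C-terminally His-tagged TDO purified from E. coli (100 nM) was tested with 0.5 mM L-tryptophan (Km concentration). Otherwise the IDO1 enzymatic set-up was used: ascorbic acid, methylene blue, catalase, and potassium phosphate pH 7.5 with BSA, incubated 1.5 hours. N'-formylkynurenine absorbance was read continuously at 321 nm, and activity was taken as the slope. IC50 was calculated from remaining enzyme activity across increasing compound concentrations.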

Test [2] deals with T2, IDO1 (Homo sapiens, UniProt P14902). The test can be described thus: Hela cell-based IDO1 assay. Particulars: Hela cells. A digest of the protocol: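 HeLa cells were seeded at 8000 per well in 96-well plates in phenol red-free DMEM with 10% FBS. After 4 hours, DMSO-diluted compound dilutions were added with IFN-γ (final 100 ng/mL) and 0.4 mM L-Trp, and cells were kept 48 hours at 37 °C, 5% CO2. Supernatant was deproteinised with trichloroacetic acid, and kynurenine was measured at 480 nm after adding 2% 4-(dimethylamino)benzaldehyde. Potency came from four-parameter logistic fits in XLfit.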

Test [3] concerns the target T3, cellular TDO2 in HEK293-TDO2 cells (Homo sapiens, UniProt P48775).
T3 construct: expressed in transfected cells; host or cells: HEK293 (ATCC), stably transfected
As to the kind of experiment: 293-TDO2 cell-based assay (Kyn colorimetric). Particulars: 48 hours of incubation. A digest of the protocol: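 HEK293 cells stably expressing TDO2 (10000/well, phenol red-free DMEM, 10% FBS) were dosed 4 h after plating and incubated 48 h at 37° C. Supernatant Kyn was measured after TCA precipitation by 4-(dimethylamino)benzaldehyde colour at 480 nm. IC50 came from four-parameter logistic fits.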

Test [4] has as its target T2, IDO1. As to the kind of experiment: IDO1 enzymatic assay. It counts as biochemical. Particulars: read-out: Enzyme IC50 IDO1. Further details: His tag (N); made in house; host or cells: E. coli. A digest of the protocol:
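IC50 values reflect remaining IDO1 activity over increasing compound concentrations. The enzyme (50 nM, N-terminally His-tagged, purified from E. coli) was incubated for 1.5 hours at 24 °C with compound, 1.3 mM D-tryptophan, 5 mM L-ascorbic acid, methylene blue and 0.4 mg/mL catalase in 50 mM potassium phosphate pH 7.5 with 0.1% BSA. The slope of N'-formylkynurenine formation, read continuously at 321 nm for 1 hour, served as activity.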

Usually IC50 stands for the concentration needed to halve the response being measured. The term EC50 denotes the concentration that produces a half-maximal response. A higher EC50 goes with weaker potency.

T3 sequence (P48775 whole entry): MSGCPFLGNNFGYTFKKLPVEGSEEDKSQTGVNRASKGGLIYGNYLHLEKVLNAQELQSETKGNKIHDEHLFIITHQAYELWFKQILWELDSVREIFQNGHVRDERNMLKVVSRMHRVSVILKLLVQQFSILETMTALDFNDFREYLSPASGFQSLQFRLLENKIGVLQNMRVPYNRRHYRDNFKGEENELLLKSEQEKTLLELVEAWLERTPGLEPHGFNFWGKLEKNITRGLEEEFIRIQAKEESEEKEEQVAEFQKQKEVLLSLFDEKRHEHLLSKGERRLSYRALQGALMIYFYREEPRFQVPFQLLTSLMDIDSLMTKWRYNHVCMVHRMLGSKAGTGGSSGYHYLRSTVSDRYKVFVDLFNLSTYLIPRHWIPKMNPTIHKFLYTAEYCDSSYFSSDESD
T1 sequence (P48775 whole entry): as above
T2 sequence (P14902 whole entry): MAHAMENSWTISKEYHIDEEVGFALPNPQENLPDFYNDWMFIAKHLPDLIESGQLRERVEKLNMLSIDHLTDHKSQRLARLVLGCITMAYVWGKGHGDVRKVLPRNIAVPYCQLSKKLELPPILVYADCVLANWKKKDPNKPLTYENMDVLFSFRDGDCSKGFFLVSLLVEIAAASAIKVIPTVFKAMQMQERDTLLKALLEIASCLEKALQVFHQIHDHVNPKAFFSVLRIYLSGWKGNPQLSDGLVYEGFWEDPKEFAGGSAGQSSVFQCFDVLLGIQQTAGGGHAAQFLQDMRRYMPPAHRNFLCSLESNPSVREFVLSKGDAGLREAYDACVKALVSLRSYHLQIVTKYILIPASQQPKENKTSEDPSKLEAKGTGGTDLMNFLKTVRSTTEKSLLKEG

As for `O[C@H](c1c(C2CC2)ccc2cncn12)[C@H]1CC[C@H](c2ccnc3ccccc32)CC1` (single isomer, unassigned) [Example D140a], the IC50 in test [1] was found to be 11000 nM; in test [4], 20 nM. The 50% effective concentration (EC50) is 38 nM in test [2] and more than 10000 nM in test [3].

Consider `CC(=O)c1ccc([C@H]2CC[C@H]([C@H](O)c3c(C4CC4)ccn4cncc34)CC2)cc1` [Example C125, 1-(4-((1 S,4r)-4-((S)-(7-cyclopropylimidazo[1,5-a]pyridin-8-yl)(hydroxy)methyl)cyclohexyl)phenyl)ethan-1-one], for which the values for the IC50 in test [1] and in test [4] were 6100 nM and 41 nM, respectively. In addition, the EC50 in test [2] is 915 nM; in test [3], more than 10000 nM.

As to `O[C@H](c1c(C2CC2)ccn2cncc12)[C@H]1CC[C@H](c2ccc(OC3CCCC3)cc2)CC1` (single isomer, unassigned) [Example C118a], the IC50 stood at 6200 nM in test [1] and 63 nM in test [4]. Besides, the EC50 is 147 nM in test [2] and more than 10000 nM in test [3].

Consider `O[C@H](c1cc(Cl)cc2cncn12)[C@H]1CC[C@H](c2ccc(Cl)cc2)CC1` (single isomer, unassigned) [Example E101a], for which the IC50 was 1700 nM in test [1] and 27 nM in test [4]. Also, the EC50 in test [2] is 2530 nM; in test [3] it was more than 10000 nM.

On to `O[C@H](c1c(C2CC2)ccn2cncc12)[C@H]1CC[C@H](c2ccc(Cl)cc2)CC1` (single isomer, unassigned) [Example C102a], for which the IC50 was found to be 16000 nM in test [1] and 36 nM in test [4]. The EC50 was 471 nM in test [2] and more than 10000 nM in test [3].

As for `N#Cc1ccc([C@H]2CC[C@H]([C@H](O)c3c(C4CC4)ccc4cncn34)CC2)cc1` (single isomer, unassigned) [Example D110a], the IC50 in test [1] amounted to 6400 nM; in test [4], 16 nM. Further, the EC50 in test [2] was 186 nM; in test [3], more than 10000 nM.

Take `OC(c1c(C2CC2)ccc2cncn12)[C@H]1CC[C@H](c2ccc3ccsc3c2)CC1` (single isomer, unassigned) [Example D134a]: the values for the IC50 in test [1] and in test [4] were 6100 nM and 15 nM, respectively. In addition, the values for the EC50 in test [2] and in test [3] were 135 nM and more than 10000 nM, respectively.

With `COc1cccc([C@H]2CC[C@H]([C@H](O)c3c(C4CC4)ccn4cncc34)CC2)c1` (single isomer, unassigned) [Example C114a], the IC50 in test [1] was determined as 8300 nM; in test [4] it was 27 nM. For the same molecule, the EC50 in test [2] was 180 nM; in test [3], more than 10000 nM.

For the molecule `O[C@H](c1c(C2CC2)ccc2cncn12)[C@H]1CC[C@H](c2ccc(F)c(F)c2F)CC1` (single isomer, unassigned) [Example D145a], the values for the IC50 in test [1] and in test [4] were 13000 nM and 19 nM, respectively. The EC50 in test [2] is 277 nM; in test [3], more than 10000 nM.

For the molecule `O[C@H](c1c(C2CC2)ccn2cncc12)[C@H]1CC[C@H](c2ccc(C(F)(F)F)cc2)CC1` (single isomer, unassigned) [Example C115a], the IC50 stood at 11000 nM in test [1] and 67 nM in test [4]. Further, the results for the 50% effective concentration (EC50) in test [2] and in test [3] were 2400 nM and more than 10000 nM, respectively.

Take `O[C@H](c1c(C2CC2)ccn2cncc12)[C@H]1CC[C@H](c2ccc(OC3COC3)cc2)CC1` (single isomer, unassigned) [Example C117a]: the IC50 worked out at 3400 nM in test [1] and 15 nM in test [4]. The results for the EC50 in test [2] and in test [3] were 131 nM and more than 10000 nM, respectively.

Regarding `O[C@H](c1c(C2CC2)ccc2cncn12)[C@H]1CC[C@H](c2ccc(Oc3ccccc3)cc2)CC1` (single isomer, unassigned) [Example D120a], the IC50 in test [1] was 6700 nM; in test [4] it was 80 nM. The concentration giving a half-maximal response (EC50) in test [2] is 370 nM; in test [3] it was more than 10000 nM.

Regarding `O[C@H](c1c(C2CC2)ccn2cncc12)[C@H]1CC[C@H](c2ccc(C(F)(F)F)nc2)CC1` (single isomer, unassigned) [Example C120a], the IC50 is 7400 nM in test [1] and 39 nM in test [4]. The figures for the EC50 in test [2] and in test [3] were 1100 nM and more than 10000 nM, respectively.

In the case of `O[C@H](c1c(C2CC2)ccn2cncc12)[C@H]1CC[C@H](c2ccccc2C(F)(F)F)CC1` (single isomer, unassigned) [Example C116a], the IC50 in test [1] is 6300 nM; in test [4], 77 nM. Also, the 50% effective concentration (EC50) in test [2] is 500 nM; in test [3], more than 10000 nM.

As to `O[C@H](c1c(C2CC2)ccc2cncn12)[C@H]1CC[C@H](c2ccc(-c3ccccc3)cc2)CC1` (single isomer, unassigned) [Example D119a], the values for the IC50 in test [1] and in test [4] were 5100 nM and 34 nM, respectively. For the same molecule, the EC50 was 344 nM in test [2] and more than 10000 nM in test [3].

Take `COCCOc1ccc([C@H]2CC[C@H]([C@H](O)c3c(C4CC4)ccn4cncc34)CC2)cc1` (single isomer, unassigned) [Example C103a]: the IC50 in test [1] came to 10000 nM; in test [4], 21 nM. The EC50 in test [2] is 167 nM; in test [3], more than 10000 nM.

In the case of `CC(C)c1ccc2cncn2c1[C@@H](O)[C@H]1CC[C@H](c2ccc(Cl)cc2)CC1` (single isomer, unassigned) [Example D115a], the IC50 in test [1] came to 10000 nM; in test [4] it was 34 nM. In addition, the EC50 in test [2] was 83 nM; in test [3], more than 10000 nM.

Take `COc1ccc([C@H]2CC[C@H]([C@H](O)c3c(C4CC4)ccn4cncc34)CC2)cc1` [Example C101a, (S)-(7-cyclopropylimidazo[1,5-a]pyridin-8-yl)(4-(4-methoxyphenyl)cyclohexyl)methanol]: the IC50 in test [1] is 4200 nM; in test [4], 17 nM. Besides, the EC50 in test [2] is 110 nM; in test [3] it was more than 10000 nM.

Regarding `O[C@H](c1c(C2CC2)ccc2cncn12)[C@H]1CC[C@H](c2cccc(F)c2)CC1` (single isomer, unassigned) [Example D156a], the IC50 in test [1] came out at 12000 nM; in test [4], 20 nM. Moreover, the values for the 50% effective concentration (EC50) in test [2] and in test [3] were 31 nM and more than 10000 nM, respectively.

For `O[C@H](c1cc(Cl)cc2cncn12)[C@H]1CC[C@H](c2cccc3ccccc32)CC1` (single isomer, unassigned) [Example E103a], the IC50 stood at 1400 nM in test [1] and 17 nM in test [4]. In addition, the EC50 in test [2] is 777 nM; in test [3], more than 10000 nM.

`COc1ccccc1[C@H]1CC[C@H]([C@H](O)c2c(C3CC3)ccn3cncc23)CC1` (single isomer, unassigned) [Example C113a]: the IC50 in test [1] turned out to be 5700 nM; in test [4], 28 nM. In addition, the EC50 is 89 nM in test [2] and more than 10000 nM in test [3].

Consider `O[C@H](c1c(C2CC2)ccn2cncc12)[C@H]1CC[C@H](c2ccc(F)c(Cl)c2)CC1` (single isomer, unassigned) [Example C132a], for which the EC50 in test [2] is 188 nM; in test [3], more than 10000 nM. Further, in test [4], the IC50 came out at 64 nM.

Take `O[C@H](c1c(C2CC2)ccc2cncn12)[C@H]1CC[C@H](c2ccc(Cl)c(F)c2)CC1` (single isomer, unassigned) [Example D128a]: the half-maximal effective concentration (EC50) is 127 nM in test [2] and more than 10000 nM in test [3]. Further, the IC50 in test [4] was determined as 19 nM.

Take `COc1cccc(C2CCC(C(O)c3c(C(C)C)ccc4cncn34)CC2)c1` (stereo not drawn) [Example D169, (6-isopropylimidazo[1,5-a]pyridin-5-yl)(4-(3-methoxyphenyl)cyclohexyl)methanol]: the EC50 in test [2] was 22 nM; in test [3], more than 10000 nM. Besides, the IC50 in test [4] was 28 nM.

`OC(c1c(C2CC2)ccc2cncn12)C1CCC(c2ccnc3ccccc23)CC1` (stereo not drawn) [Example D140, (6-cyclopropylimidazo[1,5-a]pyridin-5-yl)(4-(quinolin-4-yl)cyclohexyl)methanol]: the results for the EC50 in test [2] and in test [3] were 42 nM and more than 10000 nM, respectively. Also, the IC50 in test [4] was determined as 24 nM.

As for `Oc1ccc([C@H]2CC[C@H](C(O)c3c(C4CC4)ccn4cncc34)CC2)cc1` (single isomer, unassigned) [Example C104b], the EC50 in test [2] and in test [3] was more than 10000 nM each time. Further, the IC50 in test [4] was 5200 nM.

As to `OC(c1c(C2CC2)ccc2cncn12)[C@H]1CC[C@H](c2cccc(F)c2F)CC1` (single isomer, unassigned) [Example D132a], the EC50 in test [2] was 113 nM; in test [3] it was more than 10000 nM. Also, the IC50 in test [4] turned out to be 21 nM.
